Assay results published in patent publication US4599325A, “Substituted tyrosyl alanine dipeptide amides” (G. D. Searle & Co., priority 1985, dated 1986).
Structures can show the parent of a compound that is named as a salt. Where two headings read alike, the source gives them in different places.

Key:
opiate receptors = test: Opiate binding assay (displacement of 3H-Naloxone); design: species or system rat; details: for IC50: Table 1, 3H-Naloxone, rat brain membranes
Protocol: The test compounds were evaluated for their ability to displace the binding of ^3 H-Naloxone to opiate receptors isolate from rat brain. Male rats [COBS CD(SD)BR] obtained from Charles River Laboratories (Portage, MI) were sacrificed by cervical dislocation. A purified homogenate of receptor membranes was prepared from the brains according to the method described by Chang and Cuatrecasas. (K.-J. Chang and P. Cuatrecases. Multiple Opiate Receptors: Enkephalins And Morphine Bind To Receptors Of Different Specificity. J. Biol. Chem. 254, 2610-2618 (1979).) The brains were homogenized in 10 volumes of 0.32M sucrose and centrifuged twice at 6,000×g for 15 minutes. Following centrifugation of the supernatants at 40,000×g for 30 minutes, the pellets were allowed to swell, then centrifuged at 6,000 and 40,000×g. This process was repeated. The final pellet was resuspended in 2 volumes of 50 mM tris HCl (pH 7.4). The homogenate was assayed for protein content according to the method of Itzhaki and Gill. R. F. Itzhaki and D. M. Gill. A Micro-Biuret Method for Estimating Proteins. Anal. Biochem. 9, […] (1964).
The binding of the test compounds to the receptor membrane preparation was measured using a modification of the method of Pert and Snyder. C. B. Pert and S. H. Snyder. Properties of Opiate-Receptor Binding in Rat Brain. Proc. Natl. Acad. Sci. 70, 2243-2247 (1973). The receptor assay was run using 1 nM ^3 H-Naloxone and 2 ml of tissue homogenate (0.5 mg/ml protein concentration). Levorphanol (1×10^-5 M) was used as the displacer for non-specific binding. Both the displacer and the test compounds were added in 0.02 ml volumes. The assay was run in 0.05M tris HCl (pH 7.4) ±100 mM NaCl. Total assay volume was 2.03 ml.
Samples were incubated at 25° C. for 60 min., cooled on ice 5 min. and subsequently filtered over Whatman GF/C glass fiber filters with 2.4 ml washes of cold buffer. The filters were then solubilized in 1 ml of NCS at 50° C. for 1 hour. After solubilization, the pH was adjusted with 0.1 ml of glacial acetic acid, 10 ml of PCS was added and the samples were counted in a Nuclear Chicago Mark II liquid scintillation counter. This method was used for the following test compounds: Example 4, Example 5, Example 27, Example 28, Example 38, Example 39, and the prior art compound (4).
A modification of this method was used for the following test compounds: Example 16, Example 17, Example 21, Example 22, Example 24, Example 30, Example 31. In this modification, the total assay volume was adjusted to 1.0 ml. Samples were cooled on ice for 10 minutes and dried at 50° C. for 30 minutes, then 10 mls of PCS was added and the samples counted in a liquid scinitillation counter.
The IC50 values, the concentration of the test compounds which inhibited ^3 H-Naloxone specific binding to the opiate receptor by 50%, were obtained from log-probit plots of concentration-response curves. D. J. Finney. Probit Analysis. Cambridge University Press, London, 1947.

delta opiate receptor = biological target: T1, delta opiate receptor (Rattus norvegicus, UniProt P33533); test: Delta opiate receptor binding (3H-(D)-Ala2-(D)-Leu5 enkephalin); details: Table 2; 3H-(D)-Ala2-(D)-Leu5 enkephalin 0.2 nM, rat brain
T1 construct: The receptor membrane homogenate was prepared using rat brain; from tissue; host or cells: rat brain membrane homogenate
Protocol: Several subtypes of opiate receptors have been identified. These multiple receptors are thought to mediate the different effects of opiates, e.g., mu receptors are believed to mediate the analgesic activity of opiates. Therefore, the relative affinities of the test compounds for the mu and the delta opiate receptors was determined. The receptor membrane homogenate was prepared using rat brain as previously described in this document. The binding assays for the mu and delta receptors were performed using a modification of the method described by Chang and Cuatrecasas. K.-J. Chang and P. Cuatrecasas. Multiple Opiate receptors: enkephalins and morphine bind to receptors of different specificity, J. Biol. Chem. 254, 2610-2618 (1979). The incubation mixtures contained 0.75 ml of homogenate (1 mg protein/ml) and 0.05 ml of ^3 H-Dihydromorphine (final concentration of 0.2 nM) or 0.05 ml ^3 H-(D)-Ala^2 -(D)-Leu^5 enkephalin (final concentration of 0.2 nM). Both the displacer, naloxone, and the test compounds were added in 0.1 ml volumes. Finally, […] tris-HCl buffer (pH 7.4 at 25° C.) was added to bring the total volume up to 1 ml. The mixture were then incubated 60 minutes at 25° C. before filtering.
The IC50 values, i.e., the concentration of the test compound that inhibited ligand specific binding to its receptor by 50%, were calculated using log-probit analysis, D. J. Finney. […]

mice = test: Combined tail flick and hot plate tests: hot plate; type: in vivo, mouse; details: for ED50: Mus musculus, combined tail flick/hot plate; for activity in hot plate test of combined tests: oral and subcutaneous, prior art at doses as great as 100 mg/kg p.o. and 50 mg/kg s.c.
Protocol: Male albino inbred mice supplied by Charles River (CD-1/HAM/1LR) weighing between 20 and 30 grams were used. Analgesia was first measured using the tail flick test in which a high intensity beam of light was focused on the blackened tail. The interval of time between onset of the light and reflex removal of the tail was defined as the tail flick latency. The average of two successive determinations was recorded. Following tail flick determination, the animals were immediately placed on a 55° C. copper hot plate to which they were restricted by an inverted 600 ml glass beaker. Hot plate latency was defined as the interval between placement on the hot plate and a behavioral response of either a jump or a hindpaw lick. One determination was recorded. Mice not responding within 4.0 seconds on the tail flick and 20.0 seconds on the hot plate were discarded from the study. The tail flick test and the hot plate test were stopped after 12.0 and 40 seconds, respectively, had elapsed to prevent tissue damage. After determination of pre-injection baseline latencies, the test compound was dissolved in distilled water and administered either orally or subcutaneously (0.1 ml/10 gram body weight). Tail flick and hot plate latencies were measured 10, 30, 60 and 90 minutes after injection. One-way analyses of variance were used to detect any significant increase in tail flick and hot plate latencies (indicative of analgesia) as compared to latencies prior to drug adminstration, as well as to establish the dose-dependence of any effect. A linear regression method (least squares) was used to determine the line of best fit. The ED50 dose was determined to be that dose of test compound that produced one-half the maximum measurable increase in latency. This corresponded to a post-drug tail flick latency of 7.5 seconds and hot plate latency of 25 seconds. G. Keppel: Design and analysis: a researcher's handbook, New Jersey, Prentice-Hall, 1973.

T1 sequence (P33533 whole entry): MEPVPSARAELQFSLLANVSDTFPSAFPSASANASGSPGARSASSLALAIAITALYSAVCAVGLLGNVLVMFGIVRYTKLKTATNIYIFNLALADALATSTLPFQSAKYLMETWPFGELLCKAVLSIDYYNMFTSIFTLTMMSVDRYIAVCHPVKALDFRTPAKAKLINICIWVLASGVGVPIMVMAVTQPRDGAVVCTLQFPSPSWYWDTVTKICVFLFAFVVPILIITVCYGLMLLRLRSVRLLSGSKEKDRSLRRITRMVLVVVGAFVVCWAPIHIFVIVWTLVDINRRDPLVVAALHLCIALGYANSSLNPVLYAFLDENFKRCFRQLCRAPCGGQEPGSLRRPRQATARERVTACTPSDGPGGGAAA

Row | Compound | IC50 (opiate receptors; hydrochloride) [nM] | affinity to the opiate receptor relative to the prior art compound (opiate receptors; greater affinity than prior art compound) | IC50 (delta opiate receptor) [nM] | ED50 (mice; po, p.o., read-out: Hot Plate (ED50) p.o.) [mg/kg] | ED50 (mice; sc, s.c., read-out: Hot Plate (ED50) s.c.) [mg/kg] | activity in hot plate test of combined tests (mice) | IC50 (opiate receptors) [nM] | Hot Plate, activity at stated dose s.c. (mice; 50 mg/kg s.c.) | Hot Plate, activity at stated dose p.o. (mice; 100 mg/kg p.o.)
1 | Cc1cc(O)cc(C)c1C[C@H](N)C(=O)N[C@H](C)C(=O)NCCCc1ccccc1 [Example 5, 2,6-dimethyltyrosyl-N-(3-phenylpropyl)-D-alaninamide, hydrochloride] | 27 | tenfold | 1.2 | 52 | 9 | active |  |  | 
2 | tyrosine-D-alanine-phenylpropylamide [Prior Art, reference compound] |  |  | 62 |  |  | not active | 430 | Inactive | Inactive
